The results in this text go back to patent publication US10844032B2, “Substituted benzofuran, benzothiophene and indole Mcl-1 inhibitors” (Vanderbilt University, priority 2012, dated 2020).

Test [1] deals with Bcl-2 (residues 1-207 A96T,G110R, Δ35-91, replaced with Bcl-xL35-50) (Homo sapiens, UniProt P10415, A37E/DEL42-87/G36T/INS34DVEEN/P40E/P88T/P90S/P91E/V35R/V89E). The experiment in a line: Bak peptide fluorescence polarization anisotropy competition assay, Bcl-2 selectivity. Conditions: Table 3; FITC-Bak peptide 10 nM, Bcl-2 40 nM. The format is binding. The method, then:
(§1) Compound affinity was measured using a fluorescence polarization anisotropy competition assay. Anisotropy measurements were carried out in 384-well, black, flat-bottom plates (Greiner Bio-one, Monroe, N.C., USA).
(§2) Compounds are diluted in DMSO in a 10-point, 3-fold serial dilution scheme. 2.5 uL compound is added to 47.5 uL of assay buffer containing FITC-Bak and protein, for a final DMSO concentration of 5% and a top concentration of 20 uM. […] The plate was mixed and incubated for 90 minutes at room temperature.

In test [2] the target is Bcl-xL (residues 1-209, loop 45-86 deleted) (Homo sapiens (Human), UniProt Q07817, DEL45-86). Briefly: Bak peptide fluorescence polarization anisotropy competition assay, Bcl-xL selectivity. The format is binding. Conditions: Table 3; FITC-Bak peptide 10 nM, Bcl-xL 4 nM. The procedure: as §1, §2
Test [3] concerns K562. The experiment in a line: Cellular proliferation, CellTiter-Glo, K562. The format is cell-based. The note with it: Homo sapiens; K562, 10% FBS, 72 hours. The method, then: (§3) To evaluate compound effect on cellular proliferation, cells were plated at 1,000 cells/well in 96-well tissue culture plates in a total volume of 90 uL medium supplemented with 10% FBS (Sigma, Saint Louis, Mo.). 24 hours later, 10 uL of compound (in a 2-fold serial dilution) is added to the cells for a top concentration of 50 uM and a final DMSO concentration <1%. After 72 hours, cell number was measured using the CellTiter-Glo Luminescent assay according to manufacturer's recommendations (Promega, Madison, Wis.). A viability assay in reduced serum was also conducted. Cells were plated at 5,000 cells/well in 96-well plates in a total volume of 100 uL medium supplemented with 10% FBS (Sigma, Saint Louis, Mo.). 24 hours later, the medium was replaced with 90 uL medium containing 1% FBS and the assay conducted as described. IC50 values were determined by plotting growth against compound concentration in a 4-parameter logisitic model in XLFit.
(In general: Cellular ATP, detected with luciferase, serves as a proxy for viable cell number.)

In test [4] the test system is NCI-929. Briefly: Cellular proliferation, CellTiter-Glo, NCI-929. The format is cell-based. The note with it: Homo sapiens; NCI-929, 10% FBS, 72 hours. The procedure:
as §3

The test system of test [5] is MDA-MB-468. The experiment in a line: Cellular proliferation, CellTiter-Glo, MDA-MB-468. The format is cell-based. The note with it: Homo sapiens, MDA-MB-468, 72 h, read-out: IC50 on cellular proliferation, MDA-MB-468. The method, then:
as §3

For test [6], the system named is MDA-MB-231. The experiment in a line: Cellular proliferation, CellTiter-Glo, MDA-MB-231. The format is cell-based. Conditions: Homo sapiens; MDA-MB-231, 10% FBS, 72 hours. The procedure: as §3
In test [7] the test system is K562. The experiment in a line: Cellular viability in reduced serum, CellTiter-Glo, K562. The format is cell-based. Conditions: Homo sapiens; K562, reduced serum (1% FBS). The procedure: as §3
Test [8] deals with NCI-929. The experiment in a line: Cellular viability in reduced serum, CellTiter-Glo, NCI-929. The format is cell-based. The note with it: Homo sapiens; NCI-929, reduced serum (1% FBS). The method, then: as §3
The test system of test [9] is MDA-MB-468. The experiment in a line: Cellular viability in reduced serum, CellTiter-Glo, MDA-MB-468. The format is cell-based. The note with it: Homo sapiens, MDA-MB-468, read-out: IC50 on cellular viability, MDA-MB-468. The method, then:
as §3

For test [10], the system named is MDA-MB-231. The experiment in a line: Cellular viability in reduced serum, CellTiter-Glo, MDA-MB-231. The format is cell-based. The note with it: Homo sapiens; MDA-MB-231, reduced serum (1% FBS). The procedure: as §3
For test [11], the target named is recombinant Mcl-1 (residues 172-327) (Homo sapiens (Human), UniProt Q07820). Briefly: Bak peptide fluorescence polarization anisotropy competition assay, Mcl-1. The format is binding. Conditions: read-out: Ki for inhibition of Mcl-1. (In general: Polarisation of emitted light reports the rotation of a fluorescent probe.)
Where [12] appears, read: Table 2, Ki range, FITC-Bak peptide 10 nM, Mcl-1 14 nM.

pIC50, pKi: −log10 of the molar value. Like-named read-outs stand apart in the source and are kept apart here. A value given as a limit tells only on which side of the number the result lay.

Chain of Bcl-2 (residues 1-207 A96T,G110R, Δ35-91, replaced with Bcl-xL35-50) (P10415 with tags, fused parts or gaps A37E/DEL42-87/G36T/INS34DVEEN/P40E/P88T/P90S/P91E/V35R/V89E): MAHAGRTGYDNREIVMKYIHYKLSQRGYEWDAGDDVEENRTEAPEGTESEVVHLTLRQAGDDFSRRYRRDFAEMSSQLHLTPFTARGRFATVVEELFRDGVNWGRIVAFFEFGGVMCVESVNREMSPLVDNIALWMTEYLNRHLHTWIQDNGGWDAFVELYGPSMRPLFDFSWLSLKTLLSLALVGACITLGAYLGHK
Chain of recombinant Mcl-1 (residues 172-327) (Q07820 172-327): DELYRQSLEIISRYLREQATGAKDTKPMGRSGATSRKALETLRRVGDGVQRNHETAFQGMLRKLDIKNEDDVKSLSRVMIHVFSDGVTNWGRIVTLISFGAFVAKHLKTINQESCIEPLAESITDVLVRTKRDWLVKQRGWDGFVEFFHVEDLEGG
Chain of Bcl-xL (residues 1-209, loop 45-86 deleted) (Q07817 other isoform, or with tags, fused parts or gaps del 45-86): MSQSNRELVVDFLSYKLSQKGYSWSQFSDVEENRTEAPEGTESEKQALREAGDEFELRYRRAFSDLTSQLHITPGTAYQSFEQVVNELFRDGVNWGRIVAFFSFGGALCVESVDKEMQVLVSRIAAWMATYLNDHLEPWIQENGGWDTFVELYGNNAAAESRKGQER

As for `Cc1cc(OCCCc2c(C(=O)O)sc3cc(Cl)ccc23)cc(C)c1Cl` [Example 6], the pKi in [1] was 6.00; in test [2], 5.62.
Regarding `Cc1cc(OCCCc2c(C(=O)NS(=O)(=O)c3ccccc3)[nH]c3c(-c4cccnc4C)cccc23)cc(C)c1Cl` [Example 97, 3-(3-(4-chloro-3,5-dimethylphenoxy)propyl)-7-(2-methylpyridin-3-yl)-N-(phenylsulfonyl)-1H-indole-2-carboxamide], the pIC50 is 4.75 in [3]; 4.63 in test [4]; 4.86 in test [5]; 4.77 in test [6]; 5.59 in [7]; 5.29 in test [8]. Also, the pIC50 in test [9] is 4.95; in test [10] it was 4.89.
In [1], `O=C(O)c1sc2cc(Cl)ccc2c1CCCOc1cccc2ccccc12` [Example 5, 6-chloro-3-(3-(naphthalen-1-yloxy)propyl)benzo[b]thiophene-2-carboxylic acid] had a pKi of 5.96.
In [1], `O=C(O)c1oc2ccccc2c1CCCOc1cccc2ccccc12` [Example 21, 3-(3-(naphthalen-1-yloxy)propyl)benzofuran-2-carboxylic acid] gave a pKi of 5.34.
On to `Cc1cc(OCCCc2c(C(=O)NS(=O)(=O)CCNC(=O)c3cccn3C)[nH]c3c(-c4c(CO)nn(C)c4C)cccc23)cc(C)c1Cl` [Example 206, 3-(3-(4-chloro-3,5-dimethylphenoxy)propyl)-7-(3-(hydroxymethyl)-1,5-dimethyl-1H-1-pyrazol-4-yl)-N-((2-(1-methyl-1H-pyrrole-2-carboxamido)ethyl)sulfonyl)-1H-indole-2-carboxamide], for which the pKi in [11] (setting [12]) was ≥ 7.00. The pIC50 is < 4.30 in [3]; < 4.30 in test [4]; 4.30 in test [5]; < 4.30 in test [6]; 4.97 in test [7]; 4.47 in test [8]. Further, the pIC50 in test [9] was 4.57; in test [10] it was 4.74.
For the compound `Cc1cc(OCCCc2c(C(=O)NS(=O)(=O)CCNC(=O)c3cccn3Cc3ccccc3)[nH]c3c(-c4c(CO)nn(C)c4C)cccc23)cc(C)c1Cl` [Example 207, N-((2-(1-benzyl-1H-pyrrole-2-carboxamido)ethyl)sulfonyl)-3-(3-(4-chloro-3,5-dimethylphenoxy)propyl)-7-(3-(hydroxymethyl)-1,5-dimethyl-1H-pyrazol-4-yl)-1H-indole-2-carboxamide], in [11] (setting [12]), the pKi was ≥ 7.00. The pIC50 was < 4.30 in test [3]; 4.52 in test [4]; 4.34 in [5]; < 4.30 in [6]; 5.00 in test [7]; 4.92 in test [8]. Also, the pIC50 was 4.83 in [9] and 4.85 in [10].
In the case of `Cc1cc(OCCCc2c(C(=O)NS(=O)(=O)c3ccc(OCc4ccccc4)nc3)[nH]c3cc(Cl)ccc23)cc(C)c1Cl` [Example 225, N-((6-(benzyloxy)pyridin-3-yl)sulfonyl)-6-chloro-3-(3-(4-chloro-3,5-dimethylphenoxy)propyl)-1H-indole-2-carboxamide], the pKi in test [11] is 6.30 to 6.52.
Same read-out and setting: to `Cc1cc(OCCCc2c(C(=O)NS(=O)(=O)CCNS(=O)(=O)c3ccc(Cl)c(Cl)c3)[nH]c3ccccc23)cc(C)c1Cl` [Example 148, 3-(3-(4-chloro-3,5-dimethylphenoxy)propyl)-N-((2-(3,4-dichlorophenylsulfonamido)ethyl)sulfonyl)-1H-indole-2-carboxamide] belongs 6.52 to 7.00.
The same measure, in the same setting: in the case of `Cc1cc(OCCCc2c(C(=O)NS(=O)(=O)c3ccccc3)[nH]c3c(-c4cnn(C)c4)ccc(Cl)c23)cc(C)c1Cl` [Example 122, 4-chloro-3-(3-(4-chloro-3,5-dimethylphenoxy)propyl)-7-(1-methyl-1H-pyrazol-4-yl)-N-(phenylsulfonyl)-1H-indole-2-carboxamide] it was 6.30 to 6.52.
For `Cc1cc(OCCCc2c(C(=O)NS(=O)(=O)CCNC(=O)c3cccc(C(F)(F)F)c3)[nH]c3cc(Cl)ccc23)cc(C)c1Cl` [Example 255, 6-chloro-3-(3-(4-chloro-3,5-dimethylphenoxy)propyl)-N-((2-(3-(trifluoromethyl)benzamido)ethyl)sulfonyl)-1H-indole-2-carboxamide], in test [11] (setting [12]), the pKi is ≥ 7.00.
Consider `CCC(=O)NCCS(=O)(=O)NC(=O)c1[nH]c2cc(Cl)ccc2c1CCCOc1cc(C)c(Cl)c(C)c1` [Example 252, 6-chloro-3-(3-(4-chloro-3,5-dimethylphenoxy)propyl)-N-((2-propionamidoethyl)sulfonyl)-1H-indole-2-carboxamide], for which, in test [11], the pKi is 6.52 to 7.00.
With `Cc1cc(OCCCc2c(C(=O)NS(=O)(=O)c3ccc(-c4ccccc4)cc3)[nH]c3cc(Cl)ccc23)cc(C)c1Cl` [Example 219, N-([1,1′-biphenyl]-4-ylsulfonyl)-6-chloro-3-(3-(4-chloro-3,5-dimethylphenoxy)propyl)-1H-indole-2-carboxamide], the pKi in test [11] was 6.30 to 6.52.

What is called pKi is the Ki on a negative log10 scale, so that one unit is a factor of ten.
